We go through nine compounds from patent publication EP4410284A1, “COMPOUND AND METHOD FOR THE TREATMENT OF ZELLWEGER SPECTRUM DISORDER” (Apteeus, priority 2023, dated 2024).

pEC50: −log10 of the molar value. Read-outs that look alike come from different tables or passages of the source.

For data set [1], the system named is GM16513 cells. The data set is described as follows: Catalase import immunofluorescence, high-content screening (% importing cells). The data set is classed as cell-based, human. Conditions: GM16513 cells, 3 days.
Procedure: Primary fibroblasts were seeded at 500-700 cells per well in 384-well plates and grown at 37°C overnight. Cells were treated with test compounds or 0.1% DMSO for 3 days. After 3 days and a wash with PBS, cells were fixed with 4% paraformaldehyde (Electron Microscopy Sciences) in PBS for 20 minutes. After 3 washes with PBS, the cells were permeabilized and blocked with 0.3% Triton X-100, 1% BSA in PBS for 30 minutes at room temperature followed by 3 washes with 1% BSA in PBS. The cells were incubated with a rabbit Catalase polyclonal antibody (#12980 Cell signaling) overnight at 4°C. Following 3 washes with PBS containing 0.1% Tween-20, the cells were incubated for 1 h at room temperature with a conjugated goat anti-rabbit secondary antibody Alexa Fluor 647 (Ab150083-Abcam). The cells were then washed 3 times with PBS and Hoechst 33342 (H3570-ThermoFisher Scientific) + HCS Cellmask Blue (H32720 - ThermoFisher Scientific) staining was performed at 0.1 µg/ml and 0.4 µg/mL respectively for 30 minutes at room temperature. The cells were finally washed 3 times with PBS and fluorescent images were acquired using the INCell Analyzer 6000 imaging platform (GE Healthcare Life Sciences).
Images analysis was done using Columbus analysis software (PerkinElmer). DAPI channel was used to find nuclei (Hoechst 33342) and cytoplasm (HCS CellMask Blue) and border objects were removed. Cy5 channel (AlexaFluor 647) was used to find spots corresponding to peroxisomes which correctly import catalase. […] The number of importing or non-importing cells was calculated. Finally, results were expressed as % of importing cells.
The cytotoxicity was assessed in parallel using a double nucleus staining with Hoechst 33342 and Propidium Iodide (PI).
The EC50 and maximum efficacy of these inhibitors were determined.
For data set [2], the system named is GM16513 cells. The data set is classed as cell-based. Particulars: 3 days, PI positive cells (dead cells).
Procedure: (§1) Images were acquired using the EnSight multimode plate reader (PerkinElmer) and analysis was done using Columbus analysis software (PerkinElmer). […] Then the total number of cells and the % of dead cells was calculated.
(§2) All HDAC inhibitors were tested at 1.3 and 10 µM for 3 days on GM16513 and PEX405 cells.
The subject of data set [3] is PEX405 cells. Briefly: Catalase import immunofluorescence, high-content screening (% importing cells). The class given is cell-based, human. Particulars: PEX405 cells, 3 days.
The test system of data set [4] is PEX405 cells. The data set is classed as cell-based. Particulars: 3 days, PI positive cells (dead cells).
Procedure: as §1, §2

Regarding `O=C(CCc1ccc(CN[C@H](C(=O)OC2CCCC2)C2CCCCC2)cn1)NO` [HDAC-IN-3], the “% Importing cells” value with GM16513 cells [1] (1.3 µM) came to 50%; in the data set with GM16513 cells [1] (10 µM), 81%; in the data set with PEX405 cells [3] (1.3 µM), 11%; with PEX405 cells [3] (10 µM), 0%. Moreover, the “% PI+ cells” value in the data set on GM16513 cells [2] (1.3 µM) was 3%; in the data set on GM16513 cells [2] (10 µM) it was 26%; in the data set with PEX405 cells [4] (1.3 µM), 4%; with PEX405 cells [4] (10 µM) it was 43%.

For `O=C(NO)c1ccc(CC(=O)N(CCO)c2ccccc2)cc1` [HPOB], the “% Importing cells” value was 29% with GM16513 cells [1] (1.3 µM), 55% in the data set with GM16513 cells [1] (10 µM), 6% in the data set with PEX405 cells [3] (1.3 µM) and 13% in the data set with PEX405 cells [3] (10 µM). Moreover, the “% PI+ cells” value in the data set on GM16513 cells [2] (1.3 µM), with GM16513 cells [2] (10 µM), in the data set with PEX405 cells [4] (1.3 µM) and in the data set with PEX405 cells [4] (10 µM) was 1% each time.

Consider `O=C(c1ccc(Cl)cc1Cl)n1nnc2ccccc21` [ITSA-1], for which the “% Importing cells” value is 9% in the data set on GM16513 cells [1] (1.3 µM), 12% with GM16513 cells [1] (10 µM), 3% in the data set on PEX405 cells [3] (1.3 µM) and 1% in the data set on PEX405 cells [3] (10 µM). The “% PI+ cells” value with GM16513 cells [2] (1.3 µM) amounted to 1%; in the data set on GM16513 cells [2] (10 µM) it was 1%; with PEX405 cells [4] (1.3 µM) it was 0%; with PEX405 cells [4] (10 µM), 0%.

Take `O=C(NO)c1ccc(Cn2c(=O)n(CCc3ccccc3)c(=O)c3ccccc32)cc1` [J22352]: the “% Importing cells” value in the data set with GM16513 cells [1] (1.3 µM) was determined as 30%; in the data set with GM16513 cells [1] (10 µM), 47%; with PEX405 cells [3] (1.3 µM), 5%; with PEX405 cells [3] (10 µM), 3%. Also, the “% PI+ cells” value with GM16513 cells [2] (1.3 µM) was found to be 1%; in the data set with GM16513 cells [2] (10 µM) it was 3%; in the data set with PEX405 cells [4] (1.3 µM) it was 0%; in the data set with PEX405 cells [4] (10 µM), 2%.

On to `O=C(NO)c1ccc(CN(c2cnccn2)c2cnccn2)cc1` [KA2507], for which the “% Importing cells” value with GM16513 cells [1] (1.3 µM) came out at 17%; in the data set with GM16513 cells [1] (10 µM) it was 52%; with PEX405 cells [3] (1.3 µM), 2%; in the data set with PEX405 cells [3] (10 µM), 18%. The pEC50 in the data set on GM16513 cells [1] (Homo sapiens, 72 h, dose response with 6 concentrations, read-out: EC50) was 4.84. Besides, in the data set on GM16513 cells [1] (Homo sapiens, 72 h, dose response with 6 concentrations, read-out: Max Efficacy (% Importing cells)), the Emax stood at 100%. For the same compound, the “% PI+ cells” value with GM16513 cells [2] (1.3 µM) is on record as 1%; with GM16513 cells [2] (10 µM) it was 2%; with PEX405 cells [4] (1.3 µM), 1%; with PEX405 cells [4] (10 µM), 1%.

On to `Cc1cc(C)cc(C(=O)NOCCCCCC(=O)NO)c1` [LMK-235], for which the “% Importing cells” value in the data set on GM16513 cells [1] (1.3 µM) is reported as 86%; in the data set on GM16513 cells [1] (10 µM) it was 95%; in the data set with PEX405 cells [3] (1.3 µM) it was 45%; in the data set on PEX405 cells [3] (10 µM), 18%. Also, the “% PI+ cells” value with GM16513 cells [2] (1.3 µM) amounted to 2%; in the data set on GM16513 cells [2] (10 µM), 15%; in the data set on PEX405 cells [4] (1.3 µM) it was 1%; in the data set with PEX405 cells [4] (10 µM) it was 16%.

As for `Cn1c(/C=C/C(=O)NO)ccc1/C=C/C(=O)c1cccc(F)c1` [MC1568], the “% Importing cells” value turned out to be 25% in the data set on GM16513 cells [1] (1.3 µM), 21% in the data set on GM16513 cells [1] (10 µM), 5% in the data set with PEX405 cells [3] (1.3 µM) and 6% with PEX405 cells [3] (10 µM). Moreover, the “% PI+ cells” value in the data set with GM16513 cells [2] (1.3 µM) is on record as 3%; in the data set with GM16513 cells [2] (10 µM), 90%; with PEX405 cells [4] (1.3 µM), 0%; with PEX405 cells [4] (10 µM), 91%.

Consider `O=C(NO)c1ccc(CNc2cccc3cccnc23)cc1` [MPT0G211], for which the “% Importing cells” value is 29% with GM16513 cells [1] (1.3 µM), 65% in the data set with GM16513 cells [1] (10 µM), 6% in the data set with PEX405 cells [3] (1.3 µM) and 19% in the data set with PEX405 cells [3] (10 µM). Besides, the “% PI+ cells” value was determined as 1% in the data set on GM16513 cells [2] (1.3 µM), 4% in the data set on GM16513 cells [2] (10 µM), 1% in the data set with PEX405 cells [4] (1.3 µM) and 2% with PEX405 cells [4] (10 µM).

`O=C(/C=C/c1ccc(O)c(O)c1)c1ccc(O[C@@H]2O[C@H](CO)[C@@H](O)[C@H](O)[C@H]2O)c(O)c1O` [Marein]: the “% Importing cells” value with GM16513 cells [1] (1.3 µM) worked out at 20%; with GM16513 cells [1] (10 µM), 22%; in the data set with PEX405 cells [3] (1.3 µM), 5%; in the data set on PEX405 cells [3] (10 µM) it was 4%. Further, the “% PI+ cells” value in the data set on GM16513 cells [2] (1.3 µM) was found to be 1%; in the data set on GM16513 cells [2] (10 µM) it was 77%; in the data set with PEX405 cells [4] (1.3 µM), 0%; in the data set with PEX405 cells [4] (10 µM), 74%.

For orientation: pEC50 means −log10 of the EC50, conventionally taken in molar units.
